Test system: Akt phosphorylation in RAW264.7 cells
Test: Western blot, phosphorylation of Akt induced by RANKL
Assay type: cell-based
Conditions: 10 ng/ml RANKL for 30 minutes, dose dependent, FIG. 17
Experimental: RANKL can activate PI3K/Akt pathway to maintain the existence and the proliferation of osteoclast-like cells and prevent the apoptosis. The Akt phosphorylation level which is induced by RANKL is examined at different time points. The induced Akt phosphorylation is most apparent when it is induced by 10 ng/ml RANKL for 30 minutes. Therefore, 30 minutes are used to be the time point for inducing Akt phosphoryaltion. […] The proteins were collected by scraping and were centrifuged (13,000 rpm, 4° C., 30 minutes). The supernatant was stored in an eppendorf in −80° C. • c) Concentrations of the proteins were examined by Bio-Red DC Protein Assay. After knowing the concentrations, the proteins were diluted to specific concentrations by adding ddH2O. One forth volume of the diluted proteins of sample buffer was added into the diluted proteins and was put in boiled water for 5 min and then was chilled on ice for 5 minutes. After short time centrifugation, the diluted proteins could be injected into wells of a gel. The gel was run at 100 V for 10 minutes until the proteins were driven to the intersection between a loading gel and a running gel. Then, the voltage was swopped to 200 V for 40 minutes. • d) A PVDF membrane was immersed in Methanol for 2 minutes. After two washes in ddH2O, the membrane was immersed in transfer buffer for 15 minutes. […]

Cn1c(=O)c2c(ncn2CCN2CCN(c3ccccc3Cl)CC2)n(C)c1=O [KMUP-1, 7-[2-[4-(2-Chlorophenyl)piperazin-1-yl]ethyl] theophylline]
phosphorylation of Akt induced by RANKL: can efficiently inhibit phosphorylation of Akt induced by RANKL
